In ChEMBL document CHEMBL3817822, “Design and synthesis of pyridine-pyrazole-sulfonate derivatives as potential anti-HBV agents” (Medchemcomm, 2016):

Columns and labels:
[1] = test system: Hepatitis B virus; test: Antiviral activity against HBV infected in human HepG2(2.2.15) cells assessed as inhibition of HBsAg secretion by enzyme immunoassay; type: functional, organism-based
[2] = Selectivity index, ratio of TC50 for human HepG2(2.2.15) cells to IC50 for HBV infected in human HepG2(2.2.15) cells assessed as inhibition of viral DNA replication
[3] = Selectivity index, ratio of TC50 for human HepG2(2.2.15) cells to IC50 for HBV infected in human HepG2(2.2.15) cells assessed as inhibition of HBsAg secretion
[4] = Selectivity index, ratio of TC50 for human HepG2(2.2.15) cells to IC50 for HBV infected in human HepG2(2.2.15) cells assessed as inhibition of HBeAg secretion
[5] = test system: Hepatitis B virus; test: Antiviral activity against HBV infected in human HepG2(2.2.15) cells assessed as inhibition of viral DNA replication after 48 hrs by SYBR Green based RT-PCR method; type: functional, organism-based; settings: HepG2 2.2.15, 48 h
[6] = test system: Hepatitis B virus; test: Antiviral activity against HBV infected in human HepG2(2.2.15) cells assessed as inhibition of HBeAg secretion by enzyme immunoassay; type: functional, organism-based
[7] = Cytotoxicity against human HepG2(2.2.15) cells assessed as reduction in cell viability after 72 hrs by MTS assay; type: cell-based; settings: for CC50 at 72 h: HepG2(2.2.15) cells, read-out: TC50; for Activity: hepg2 2.2.15, 72 h

Row | Compound | IC50 [1] [µM] | Selectivity Index [2] | Selectivity Index [3] | Selectivity Index [4] | IC50 [5] [µM] | IC50 [6] [µM] | CC50 at 72 h [7] [µM] | Activity [7]
1 | COc1ccc(S(=O)(=O)Oc2cc(CSc3ccccn3)[nH]n2)cc1 | 14.5 | 2.37 | 6.21 | 2.02 | 38.1 | 44.6 | 90.2 | Dose-dependent effect
2 | COc1ccc(S(=O)(=O)Oc2cc(-c3ccccn3)[nH]n2)cc1 | 15.4 | 3.95 | 5.69 | 3.79 | 22.2 | 23.1 | 87.5 | Dose-dependent effect
3 | O=S(=O)(Oc1cc(-c2ccccn2)[nH]n1)c1ccc(Br)cc1 | 210 | – | 3.85 | – | – | – | 809 | Dose-dependent effect
4 | O=[N+]([O-])c1ccc(S(=O)(=O)Oc2cc(-c3ccccn3)[nH]n2)cc1 | 125 | – | 6.28 | – | – | – | 787 | Dose-dependent effect
5 | O=S(=O)(Oc1cc(CSc2ccccn2)[nH]n1)c1ccccc1 | 152 | 5.46 | 0.68 | 5.09 | 18.9 | 20.3 | 103 | Dose-dependent effect
6 | O=S(=O)(Oc1cc(CSc2ccccn2)[nH]n1)c1ccc(F)cc1 | 26.2 | 0.59 | 4.44 | 0.46 | 197 | 250 | 116 | Dose-dependent effect
7 | O=S(=O)(Oc1cc(CSc2ccccn2)[nH]n1)c1ccc(Br)cc1 | 115 | 8.63 | 0.46 | 5.69 | 6.07 | 9.2 | 52.4 | Dose-dependent effect
8 | O=S(=O)(Oc1cc(-c2ccccn2)[nH]n1)c1ccccc1 | 137 | 2.07 | 0.99 | 1.94 | 65.3 | 69.5 | 135 | Dose-dependent effect
9 | O=S(=O)(Oc1cc(-c2ccccn2)[nH]n1)c1ccc(F)cc1 | 45.9 | 2.76 | 5.53 | 3.06 | 92.1 | 82.9 | 254 | Dose-dependent effect
10 | Cc1ccc(S(=O)(=O)Oc2cc(CSc3ccccn3)[nH]n2)cc1 | 19.8 | 6.04 | 4.36 | 4.45 | 14.3 | 19.4 | 86.4 | Dose-dependent effect
11 | Cc1ccc(S(=O)(=O)Oc2cc(-c3ccccn3)[nH]n2)cc1 | 23.2 | 6.92 | 9.35 | 6.71 | 31.3 | 32.3 | 217 | Dose-dependent effect
12 | O=[N+]([O-])c1ccccc1S(=O)(=O)Oc1cc(CSc2ccccn2)[nH]n1 | 6.25 | 10.51 | 10.6 | 6.68 | 6.3 | 9.92 | 66.2 | Dose-dependent effect
13 | Nc1ccn([C@H]2CS[C@@H](CO)O2)c(=O)n1 | – | – | – | – | 2.09 | – | 352 | –
14 | CS(=O)(=O)Oc1cc(CSc2ccccn2)[nH]n1 | 161 | 1.12 | 5.17 | 1.22 | 739 | 679 | 830 | Dose-dependent effect
15 | O=[N+]([O-])c1ccc(S(=O)(=O)Oc2cc(CSc3ccccn3)[nH]n2)cc1 | 4.8 | 6.88 | 7.97 | 6.41 | 5.56 | 5.97 | 38.2 | Dose-dependent effect
16 | O=c1cc(-c2ccccn2)[nH][nH]1 | 1380 | 0.79 | 0.77 | 0.78 | 1350 | 1370 | 1060 | Dose-dependent effect
17 | O=c1cc(CSc2ccccn2)[nH][nH]1 | 815 | 2.13 | 1.37 | 1.89 | 524 | 590 | 1120 | Dose-dependent effect
18 | O=[N+]([O-])c1ccccc1S(=O)(=O)Oc1cc(-c2ccccn2)[nH]n1 | 7.48 | 35.46 | 43.54 | 27.11 | 9.19 | 12 | 326 | Dose-dependent effect
19 | CS(=O)(=O)Oc1cc(-c2ccccn2)[nH]n1 | 287 | – | 3.68 | – | – | – | 1060 | Dose-dependent effect
